Test results from US10081624B2, “Heterocyclic compound” (Takeda Pharmaceutical Company Limited, priority 2014, dated 2018).

Experiments:
HDAC1 enzyme = biological target: T1, HDAC1 enzyme (Homo sapiens, UniProt Q13547); assay: HDAC1 enzyme inhibitory assay (HDAC-Glo I/II Assay kit); format: biochemical; settings: 1 μM test compound; read-out: HDAC1 inhibitory rate (%) (1 μM)
T1 construct: prepared by transducing full length HDAC1 and HDAC6 genes into Sf-9 insect cells; GST; purchased SignalChem; host or cells: Sf-9 insect cells
How it was run: (§1)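 Full-length GST-purified HDAC1 or HDAC6 (Sf-9 expressed) preincubated 60 min at room temperature with compound in Tris-HCl pH 7.5 buffer with glutathione and Tween-20. HDAC-Glo substrate-developer added, 20 min at room temperature, then luminescence read; inhibition relative to no-enzyme wells as 100%.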

HDAC6 enzyme = biological target: T2, HDAC6 enzyme (Homo sapiens, UniProt Q9UBN7); assay: HDAC6 enzyme inhibitory assay (HDAC-Glo I/II Assay kit); format: biochemical; settings: 1 μM test compound; read-out: HDAC6 inhibitory rate (%) (1 μM)
T2 construct: prepared by transducing full length HDAC1 and HDAC6 genes into Sf-9 insect cells; GST; purchased SignalChem; host or cells: Sf-9 insect cells
T2 sequence (Q9UBN7 1-1215): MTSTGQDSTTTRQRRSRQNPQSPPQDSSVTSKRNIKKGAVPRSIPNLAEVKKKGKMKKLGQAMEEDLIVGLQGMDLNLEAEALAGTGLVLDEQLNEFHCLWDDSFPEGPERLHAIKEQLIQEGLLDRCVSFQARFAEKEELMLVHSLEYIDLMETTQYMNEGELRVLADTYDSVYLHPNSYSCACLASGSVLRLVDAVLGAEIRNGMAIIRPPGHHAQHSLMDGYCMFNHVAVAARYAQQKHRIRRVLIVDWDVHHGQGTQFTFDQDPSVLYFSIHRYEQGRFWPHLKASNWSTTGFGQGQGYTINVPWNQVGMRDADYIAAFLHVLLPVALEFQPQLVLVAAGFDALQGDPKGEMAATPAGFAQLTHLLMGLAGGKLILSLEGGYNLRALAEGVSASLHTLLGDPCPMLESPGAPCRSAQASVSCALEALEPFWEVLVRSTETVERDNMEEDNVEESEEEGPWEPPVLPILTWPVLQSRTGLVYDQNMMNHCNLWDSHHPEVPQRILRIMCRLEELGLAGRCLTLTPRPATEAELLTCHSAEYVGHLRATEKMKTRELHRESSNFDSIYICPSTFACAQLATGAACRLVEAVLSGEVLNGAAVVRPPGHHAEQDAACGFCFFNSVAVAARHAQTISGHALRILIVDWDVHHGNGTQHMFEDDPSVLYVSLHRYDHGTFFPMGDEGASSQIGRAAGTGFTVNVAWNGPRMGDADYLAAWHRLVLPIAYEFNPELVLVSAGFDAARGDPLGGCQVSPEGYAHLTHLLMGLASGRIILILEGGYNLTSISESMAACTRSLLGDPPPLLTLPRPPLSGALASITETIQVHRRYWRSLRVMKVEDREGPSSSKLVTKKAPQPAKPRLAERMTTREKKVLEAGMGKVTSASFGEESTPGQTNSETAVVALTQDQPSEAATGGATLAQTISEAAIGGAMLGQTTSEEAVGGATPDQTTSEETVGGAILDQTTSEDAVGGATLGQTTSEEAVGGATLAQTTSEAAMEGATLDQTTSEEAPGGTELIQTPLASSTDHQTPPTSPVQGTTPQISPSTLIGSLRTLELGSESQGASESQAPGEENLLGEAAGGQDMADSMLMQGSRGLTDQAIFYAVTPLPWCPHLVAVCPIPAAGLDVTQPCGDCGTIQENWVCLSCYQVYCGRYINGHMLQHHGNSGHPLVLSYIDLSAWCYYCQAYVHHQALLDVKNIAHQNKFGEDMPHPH
How it was run: as §1

T1 sequence (Q13547 whole entry): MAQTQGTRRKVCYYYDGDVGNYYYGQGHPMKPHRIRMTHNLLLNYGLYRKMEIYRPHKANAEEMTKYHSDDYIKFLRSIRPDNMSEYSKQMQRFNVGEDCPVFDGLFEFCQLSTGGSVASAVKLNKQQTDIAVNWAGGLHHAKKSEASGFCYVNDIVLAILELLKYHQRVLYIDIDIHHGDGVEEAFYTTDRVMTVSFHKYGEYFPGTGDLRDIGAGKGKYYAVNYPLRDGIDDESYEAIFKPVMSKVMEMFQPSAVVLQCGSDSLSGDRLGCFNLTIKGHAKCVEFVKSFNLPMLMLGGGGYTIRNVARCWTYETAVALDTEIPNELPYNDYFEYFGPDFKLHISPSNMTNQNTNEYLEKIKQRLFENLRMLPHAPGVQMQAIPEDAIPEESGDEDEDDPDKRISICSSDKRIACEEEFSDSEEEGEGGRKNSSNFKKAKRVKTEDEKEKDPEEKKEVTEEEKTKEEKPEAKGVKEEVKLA

SMILES	inhibition at 1 µM (HDAC1 enzyme) [%]	inhibition at 1 µM (HDAC6 enzyme) [%]
O=C(NCC1COCCN1C(=O)c1ccccc1)c1ccc(-c2noc(C(F)(F)F)n2)cc1 (stereo not drawn) [Example 1, N-((4-benzoylmorpholin-3-yl)methyl)-4-(5-(trifluoromethyl)-1,2,4-oxadiazol-3-yl)benzamide]	22	98
N#CC1(C(=O)N2CCOC[C@@H]2CNC(=O)c2ccc(-c3noc(C(F)(F)F)n3)cc2)CC1 [Example 55, N-(((3S)-4-((1-cyanocyclopropyl)carbonyl)morpholin-3-yl)methyl)-4-(5-(trifluoromethyl)-1,2,4-oxadiazol-3-yl)benzamide]	17	96
Cc1cc(C#N)ccc1C(=O)N1CCOC[C@@H]1CNC(=O)c1ccc(-c2noc(C(F)(F)F)n2)cc1 [Example 87, N-(((3S)-4-(4-cyano-2-methylbenzoyl)morpholin-3-yl)methyl)-4-(5-(trifluoromethyl)-1,2,4-oxadiazol-3-yl)benzamide]	29	98
O=C(NCC1COCCN1C(=O)c1cccc(Cl)c1)c1ccc(-c2noc(C(F)(F)F)n2)cc1 (stereo not drawn) [Example 7, N-((4-(3-chlorobenzoyl)morpholin-3-yl)methyl)-4-(5-(trifluoromethyl)-1,2,4-oxadiazol-3-yl)benzamide]	24	101
Cc1nonc1C(=O)N1CCOC[C@@H]1CNC(=O)c1ccc(-c2noc(C(F)(F)F)n2)cc1 [Example 60, N-(((3S)-4-((4-methyl-1,2,5-oxadiazol-3-yl)carbonyl)morpholin-3-yl)methyl)-4-(5-(trifluoromethyl)-1,2,4-oxadiazol-3-yl)benzamide]	27	98
O=C(NCC1COCCN1C(=O)C1(c2ccccc2)COC1)c1ccc(-c2noc(C(F)(F)F)n2)cc1 (stereo in doubt) [Example 103, N-(((3S)-4-((3-phenyloxetan-3-yl)carbonyl)morpholin-3-yl)methyl)-4-(5-(trifluoromethyl)-1,2,4-oxadiazol-3-yl)benzamide]	35	98
C[C@@H]1CCCN1C(=O)N1CCOC[C@@H]1CNC(=O)c1ccc(-c2noc(C(F)(F)F)n2)cc1 [Example 289, N-(((3S)-4-(((2R)-2-methylpyrrolidin-1-yl)carbonyl)morpholin-3-yl)methyl)-4-(5-(trifluoromethyl)-1,2,4-oxadiazol-3-yl)benzamide]	4	85
CC(C)n1nccc1C(=O)N1CCOC[C@@H]1CNC(=O)c1ccc(-c2noc(C(F)(F)F)n2)cc1 [Example 84, N-(((3S)-4-((1-isopropyl-1H-pyrazol-5-yl)carbonyl)morpholin-3-yl)methyl)-4-(5-(trifluoromethyl)-1,2,4-oxadiazol-3-yl)benzamide]	53	98
O=C(NC[C@H]1COCCN1C(=O)C1(c2ccccc2)CC1)c1ccc(-c2noc(C(F)(F)F)n2)cn1 [Example 202, N-(((3S)-4-((1-phenylcyclopropyl)carbonyl)morpholin-3-yl)methyl)-5-(5-(trifluoromethyl)-1,2,4-oxadiazol-3-yl)pyridine-2-carboxamide]	20	98
O=C(NC[C@@H]1COCCN1C(=O)c1cc(F)cc(F)c1)c1ccc(-c2noc(C(F)(F)F)n2)cc1 [Example 155, N-(((3R)-4-(3,5-difluorobenzoyl)morpholin-3-yl)methyl)-4-(5-(trifluoromethyl)-1,2,4-oxadiazol-3-yl)benzamide]	15	99
O=C(NC[C@H]1COCCN1C(=O)N1CCC(F)(F)CC1)c1ccc(-c2noc(C(F)(F)F)n2)cc1 [Example 277, N-(((3S)-4-((4,4-difluoropiperidin-1-yl)carbonyl)morpholin-3-yl)methyl)-4-(5-(trifluoromethyl)-1,2,4-oxadiazol-3-yl)benzamide]	8	101
O=C(NCC1COCCN1C(=O)C1CCc2ccccc2O1)c1ccc(-c2noc(C(F)(F)F)n2)cc1 (stereo not drawn) [Example 35, N-((4-(3,4-dihydro-2H-chromen-2-ylcarbonyl)morpholin-3-yl)methyl)-4-(5-(trifluoromethyl)-1,2,4-oxadiazol-3-yl)benzamide]	30	92
Cc1nonc1C(=O)N1CCOC[C@@H]1CNC(=O)c1ccc(-c2noc(C(F)(F)F)n2)s1 [Example 260, N-(((3S)-4-((4-methyl-1,2,5-oxadiazol-3-yl)carbonyl)morpholin-3-yl)methyl)-5-(5-(trifluoromethyl)-1,2,4-oxadiazol-3-yl)thiophene-2-carboxamide]	44	98
O=C(NC[C@H]1COCCN1C(=O)N1CCC2(CC1)COC2)c1ccc(-c2noc(C(F)(F)F)n2)cc1 [Example 282, N-(((3S)-4-(2-oxa-7-azaspiro[3.5]non-7-ylcarbonyl)morpholin-3-yl)methyl)-4-(5-(trifluoromethyl)-1,2,4-oxadiazol-3-yl)benzamide]	5	83
O=C(NC[C@H]1COCCN1C(=O)N1CCCC1CCO)c1ccc(-c2noc(C(F)(F)F)n2)cc1 (stereo partly drawn) [Example 305, N-(((3S)-4-((2-(2-hydroxyethyl)pyrrolidin-1-yl)carbonyl)morpholin-3-yl)methyl)-4-(5-(trifluoromethyl)-1,2,4-oxadiazol-3-yl)benzamide]	5	99
Cn1nc2ccccc2c1C(=O)N1CCOC[C@H]1CNC(=O)c1ccc(-c2noc(C(F)(F)F)n2)cc1 [Example 157, N-(((3R)-4-((2-methyl-2H-indazol-3-yl)carbonyl)morpholin-3-yl)methyl)-4-(5-(trifluoromethyl)-1,2,4-oxadiazol-3-yl)benzamide]	31	92
O=C(NC[C@H]1COCCN1C(=O)N1CCC(c2cccnc2)C1)c1ccc(-c2noc(C(F)(F)F)n2)cc1 (stereo partly drawn) [Example 294, N-(((3S)-4-((3-(pyridin-3-yl)pyrrolidin-1-yl)carbonyl)morpholin-3-yl)methyl)-4-(5-(trifluoromethyl)-1,2,4-oxadiazol-3-yl)benzamide]	5	82
O=C(NCC1COCCN1C(=O)c1cc2ccccc2o1)c1ccc(-c2noc(C(F)(F)F)n2)cc1 (stereo not drawn) [Example 19, N-((4-(1-benzofuran-2-ylcarbonyl)morpholin-3-yl)methyl)-4-(5-(trifluoromethyl)-1,2,4-oxadiazol-3-yl)benzamide]	24	98
O=C(NC[C@H]1COCCN1C(=O)C1CCc2ccccc2O1)c1ccc(-c2noc(C(F)(F)F)n2)cc1 (stereo partly drawn) [Example 52, N-(((3S)-4-(3,4-dihydro-2H-chromen-2-ylcarbonyl)morpholin-3-yl)methyl)-4-(5-(trifluoromethyl)-1,2,4-oxadiazol-3-yl)benzamide]	18	97
O=C(NC[C@H]1COCCN1C(=O)N1CCCOC(CO)C1)c1ccc(-c2noc(C(F)(F)F)n2)cc1 (stereo partly drawn) [Example 291, N-(((3S)-4-((2-(hydroxymethyl)-1,4-oxazepan-4-yl)carbonyl)morpholin-3-yl)methyl)-4-(5-(trifluoromethyl)-1,2,4-oxadiazol-3-yl)benzamide]	1	90
Cc1nn(C)c(C)c1C(=O)N1CCOC[C@@H]1CNC(=O)c1ccc(-c2noc(C(F)(F)F)n2)cc1 [Example 67, 4-(5-(trifluoromethyl)-1,2,4-oxadiazol-3-yl)-N-(((3S)-4-((1,3,5-trimethyl-1H-pyrazol-4-yl)carbonyl)morpholin-3-yl)methyl)benzamide]	5	95
